In the experiment the test system is CEM cells HIV-1 protection, formazan growth assay. Description: NCI AIDS Antiviral Assay. The note with it: for pIC50: measured here: growth of uninfected CEM cells. In a few lines:
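Screen of anti-HIV-1 activity in human CEM cells using a formazan-based growth measurement at five drug concentrations. Hits with 50% or greater protection were repeated, and confirmation required reproducible complete protection.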

Drawing on PubChem BioAssay AID179 (DTP/NCI, 2004), this text covers EC50, IC50 and outcome for 72 molecules.

pEC50, pIC50: −log10 of the molar value. Calls of active or inactive are those of the source.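 How the source made its calls: active means compounds giving half or more protection of infected cells from virus-caused growth loss, again on retest; inactive means the rest.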 Where a SMILES comes first, the peptide text is derived from it. [ ]: non-standard residue; d: D form. The star is where a group is joined. Phe(4-NO2) = N[CH](Cc1ccc([N+](=O)[O-])cc1)C(=O)O; Boc = CC(C)(C)OC(=O)*; OBn = c1ccc(CO*)cc1

Consider `C=CCOc1cc2c(ccc1=O)-c1c(cc(OC)c(OC)c1OC)CCC2NC(C)=O` (stereo not given), for which the pEC50 (usually the negative decadic logarithm of the EC50, by convention in mol/L) is less than 3.70 and the negative-log IC50 (pIC50) (in general, the IC50 on a negative log10 scale, so that one unit is a factor of ten) is 5.44.
The like results for `CC(C)(C)COC1C2(OCCO2)C2CCC1(C)C2(C)C` (stereo not given) were, in that order, less than 3.70 and less than 3.70.
As for `Cc1cc(C)nc(SC(F)(F)c2nc3ccccc3o2)n1`, the result was active.
For `Cc1ccc(NC(=O)CC2C(=O)Nc3ccccc3S2(=O)=O)cc1C` (stereo not given), the pEC50 was less than 4.98 and the pIC50 was less than 4.98.
For the molecule `Cc1cc2c(cc1C)[n+](=O)cc(C(=O)C/C(=N/NC(=S)NN)C(=O)Nc1cccc(C(F)(F)F)c1)n2[O-]`, the pEC50 is less than 3.90 and the pIC50 is less than 3.90.
For `COc1cc(CC(C(=O)OC(C)(C)C)C(=O)OC(C)(C)C)c(NC(C)=O)c(OC)c1OC`, the pEC50 is less than 3.70 and the pIC50 was less than 3.70.
Regarding `CCN(CCCN(CC)C(=O)Nc1c(C)cccc1C)C(=O)Nc1c(C)cccc1C`, the pEC50 is less than 3.70 and the pIC50 is less than 3.70.
As to `OC1COCC2N3C(=NN12)Sc1ccccc13` (stereo not given), the result was inactive.
As for `CCOC(=O)c1c(NC(=O)c2ccccc2)sc2c(=O)oc(-c3ccccc3)nc12`, the pEC50 was less than 4.62 and the negative-log IC50 (pIC50) was less than 4.62.
`CCOP(=S)(OCC)OC(=O)C(C)SSC` (stereo not given) (tested in a mixture with another compound): the pEC50 was less than 3.70 and the negative-log IC50 (pIC50) was 4.02.
Consider `CCCCCCCCC(C)CCCCCCCCC(=O)OCC(COP(=O)([O-])OCC[N+](C)(C)C)OC(=O)CCCCCCCCC(C)CCCCCCCC` (stereo not given), for which the result was inactive.
As for `C=C[C@]1(C)CC(O)C2C(=C)C(=O)OC2[C@H]1C(=C)C=O` (stereo not given in full), the pEC50 is less than 3.70 and the negative logarithm of the IC50 (pIC50) is 5.48.
The like results for `CC(=O)n1c(=S)n(C(C)=O)c2ccccc21` were, in that order, less than 3.70 and less than 3.70.
For `Cc1ccc(SC2CC3CC2C2COCC32)cc1` (stereo not given) the same measures were less than 4.07 and 4.32.
For `CC(NC(=O)C(Cc1ccccc1)NC(=O)C(Cc1ccccc1)NC(=O)OC(C)(C)C)C(=O)OCc1ccccc1` (stereo not drawn) (Boc-Phe-Phe-Ala-OBn; configuration not given here) the same measures were less than 3.70 and 4.22.
Take `Cc1nc2c(=O)n(C)c(=O)nc-2n(CCO)c1C`: the pEC50 is less than 4.00 and the pIC50 is 4.08.
For `CCN(CC)C(C)(C)C(=O)/C=C/c1ccc(C)cc1`, the result was inactive.
As for `O=C1OC(c2ccccc2)=N/C1=C\c1cccc2ccccc12`, the pEC50 is less than 3.92 and the pIC50 is less than 3.92.
Turning to `COc1ccc(CC(NC(=O)NSc2ccccc2)C(=O)NC2C(CO)OC(n3cnc4c(N(C)C)ncnc43)C2O)cc1` (stereo not given), the pEC50 is less than 3.70 and the pIC50 is 4.06.
For `CC(=O)c1cccc2c1CC1(C2)Cc2ccc3c(c2C1=O)CCC3` (stereo not given) the same measures were less than 3.70 and less than 3.70.
For `C[CH2][Sn]([CH2]C)([O]C(=O)c1ccc(F)cc1)[O][Sn]([CH2]C)([CH2]C)[O]C(=O)c1ccc(F)cc1` the same measures were less than 5.09 and 5.18.
`Cc1c(CCCl)c(N=[N+]=[N-])n2c(nc3ccccc32)c1C#N`: the pEC50 was less than 3.70 and the pIC50 is 4.96.
For the molecule `Cc1ccc(O)c(C(c2ccc(C(c3cc(C)ccc3O)c3cc(C)ccc3O)cc2)c2cc(C)ccc2O)c1`, the pEC50 is less than 4.70 and the pIC50 was 5.51.
For `O=C(Nc1nccs1)c1c(O)nc2sccn2c1=O` the same measures were less than 3.70 and less than 3.70.
The like results for `CNC(=O)CCC(NC(=O)OC(C)(C)C)C(=O)NC(Cc1ccc([N+](=O)[O-])cc1)C(=O)NCC(=O)NC` (stereo not given) (Boc-Glu(NHMe)-[Phe(4-NO2)]-Gly-NHMe; configuration not given here) were, in that order, less than 3.70 and less than 3.70.
The like results for `COc1ccc2c(c1OC)Oc1c(OC)ccc3c1C(C2)NCC3` (stereo not given) were, in that order, less than 3.77 and less than 4.00.
As for `O=C(Nc1cc2c(oc1=O)CCC2)c1cnccn1`, the pEC50 is less than 4.00 and the pIC50 is less than 4.00.
For the molecule `COC(=O)/C(C#N)=C1\N=NNN1CCCc1ccccc1`, the outcome was inactive.
As for `COC1(OC)CC2OC1C1N=NN(C(=O)OC(C)(C)C)C21` (stereo not given), the pEC50 is less than 4.48 and the pIC50 was less than 4.48.
In the case of `OCC1OC2c3ccccc3COC2C1OCc1ccccc1` (stereo not given), the outcome was inactive.
Still for that read-out and setting: in the case of `COc1cc(O)c2c(c1)C(=O)C1=C(C2=O)C(O)C[C@@](C)(O)C1` (stereo not given in full) it was “inactive”.
For `CCCNC(=S)/N=C/c1c(O)c2ccccc2[nH]c1=O`, the pEC50 was less than 3.70 and the pIC50 is less than 3.70.
For the molecule `ONC1=Nc2ccccc2OCc2cc(Br)c(Br)cc2COc2ccccc2N=C1NO`, the pEC50 was less than 3.70 and the negative-log IC50 (pIC50) was 5.00.
For `O=C1CC(Cc2n[nH]c3c2CCCC3)CC(=O)N1` the same measures were less than 3.70 and less than 3.70.
The like results for `COc1ccc(S(=O)(=O)O)cc1C(=O)c1cc(S(=O)(=O)O)ccc1OC` were, in that order, less than 3.24 and less than 3.24.
Turning to `CCOC(=O)c1cc(=O)n(C)c(=O)n1C`, the result was inactive.
Same read-out and setting: the entry for `CC1(c2ccccc2)OC(=O)c2c1ccc1ccccc21` (stereo not given) is “inactive”.
Consider `CC1CCCC2(O1)OC1CC(=O)OC1C1=C2C(=O)c2ccccc2C1=O` (stereo not given), for which the pEC50 is less than 4.06 and the negative logarithm of the IC50 (pIC50) was 6.38.
The like results for `CN(C)CC(CN(C)C)c1cccc(C(CN(C)C)CN(C)C)n1` were, in that order, less than 3.13 and less than 3.13.
Take `O=c1c(SCc2ccccc2)c(N2CCOCC2)cnn1-c1ccccc1`: the pEC50 is less than 3.18 and the negative-log IC50 (pIC50) is 3.24.
Take `NS(=O)(=O)c1ccccc1[N+](=O)[O-]`: the outcome was inactive.
Still for that read-out and setting: the entry for `COc1ccccc1NC(=O)C1=C(C)NC(C)=C(C(=O)Nc2ccccc2OC)C1/C=C/c1ccccc1` is “inactive”.
In the case of `C#CCCCCC#Cc1ccccc1C(=O)C=[N+]=[N-]`, the pEC50 was less than 3.96 and the pIC50 is 4.04.
With `O=C(CCN1CCOCC1)c1ccc(Oc2ccc(F)cc2)cc1`, the result was inactive.
Consider `CCc1cccc(C)c1NC(=S)NC(=O)c1ccccc1C(=O)NC(=S)Nc1c(C)cccc1CC`, for which the pEC50 is less than 4.16 and the pIC50 is less than 4.16.
For `CC(=O)C(=Cc1ccc(O)cc1)C(C)=O`, the pEC50 was less than 2.91 and the pIC50 is 4.12.
For `C1C2CC3CC1CC(Nc1nc(NC45CC6CC(CC(C6)C4)C5)nc(NC45CC6CC(CC(C6)C4)C5)n1)(C2)C3` the same measures were less than 3.70 and 4.38.
For `O=C1c2ccccc2C(=O)N1C/C=N/NS(=O)(=O)c1cccc([N+](=O)[O-])c1` the same measures were less than 3.19 and less than 3.19.
`CC1CC/C(=C\c2ccc(Cl)cc2)C2OC(N)=C(C#N)C(c3ccc(Cl)cc3)=C12` (stereo not given): the outcome was inactive.
Take `Nc1nc(N)c(NC(=O)CCCO)c(=O)[nH]1`: the pEC50 is less than 3.70 and the pIC50 is less than 3.70.
Take `CCCCc1ccc(Nc2cc(=O)n(C)c(=O)[nH]2)cc1`: the pEC50 was less than 3.70 and the negative-log IC50 (pIC50) was less than 3.70.
Regarding `CC(=O)/C(=C/n1c(=S)sc2ccccc21)C(=O)Nc1ccc([N+](=O)[O-])cc1`, the pEC50 is less than 3.89 and the negative logarithm of the IC50 (pIC50) was 4.02.
For `C=C1C[C@@H]2O[C@H]3[C@H]4[C@@H](C[C@@H](C)[C@@H](OC(C)=O)[C@H]42)[C@@H](C)CO[C@@]3(C)[C@H](OC(C)=O)C[C@H]1O` the same measures were less than 3.70 and 4.29.
The like results for `CCOC(=O)/C(=C/c1ccc(OC)cc1)N(CC)CC` were, in that order, less than 3.33 and 3.58.
For `COc1ccccc1C(=O)[O][Sn]([c]1ccccc1)([c]1ccccc1)[c]1ccccc1` the same measures were less than 5.70 and 6.66.
For `Clc1cccc(-c2nnc(-c3nn(-c4ccccc4)c4nc5ccccc5nc34)o2)c1`, the pEC50 was less than 5.33 and the negative-log IC50 (pIC50) was less than 5.33.
Turning to `CCCCCCCCCCCCCCCCCCC1=C(O)C(=O)C=C(OC)C1=O`, the pEC50 was less than 3.70 and the negative logarithm of the IC50 (pIC50) is 4.31.
For `CCCCn1c(N)n[nH]c1=S`, the outcome was inactive.
With `Cc1ccc(C23c4ccccc4CCN2C(=O)C3N)cc1` (stereo not given), the pEC50 is less than 3.22 and the negative-log IC50 (pIC50) is 3.93.
For `CCN(CC)c1ccc2cc(-c3nc4ccccc4n3C)c(=O)oc2c1` the same measures were less than 5.12 and 6.36.
For `CCC(N)CS(=O)(=O)O` (stereo not given) the same measures were less than 3.70 and less than 3.70.
With `[N-]=[N+]=NC12CC3C4CC5CC3C(C1)C(C5)C4C2`, the pEC50 is less than 3.55 and the pIC50 is 3.79.
For `O=C(O)c1ccc(CS(=O)(=O)c2ccc([N+](=O)[O-])cc2)c([N+](=O)[O-])c1` the same measures were less than 3.17 and 3.49.
For `CCCCS(=N)(=O)CC[C@H](N)C(=O)O` (stereo not given in full) the same measures were less than 3.25 and 3.67.
For `CCOC(=O)/C(C#N)=C/c1ccccc1F`, the pEC50 was less than 3.51 and the pIC50 is less than 3.51.
`CC(C)C1=Cc2ccc3c(c2C(=O)C1=O)CCCC3(C)C`: the pEC50 is less than 4.73 and the negative logarithm of the IC50 (pIC50) is 5.53.
As for `COc1cc(O)c2c(c1)C(O)C(O)CC1OC1C(=O)/C=C/CC(C)OC2=O` (stereo not given), the pEC50 was less than 4.12 and the pIC50 is 6.01.
As for `C/C(=N/OC(=O)N(C)C)c1cccs1`, the pEC50 is less than 3.70 and the negative-log IC50 (pIC50) is less than 3.70.
On to `CC1=C(C#N)C2C(=C(C)N1)C(N)=Nc1ccccc12` (stereo not given), for which the pEC50 is less than 3.70 and the negative logarithm of the IC50 (pIC50) was 4.87.
The like results for `CC(=O)Nc1ccc(/C=C(\NC(=O)c2ccccc2)C(=O)NNS(=O)(=O)c2ccc(C)cc2)cc1` were, in that order, less than 4.28 and less than 4.28.
The like results for `Oc1ccc(/C=C\c2cnccn2)cc1` were, in that order, less than 3.60 and 4.47.
The like results for `S=C1Cc2c(-c3ccc(Cl)cc3)cc(-c3ccccc3)nc2-c2ccccc2N1` were, in that order, less than 3.70 and 4.68.
